≈ marks a conversion by molar mass, not a printed value.
Experiments:
Assay type in all cases: physicochemical
[1] = Kinetic solubility of the compound incubated for 60 mins under shaking condition by UV-Vis spectroscopic analysis; details: 1 h
[2] = Kinetic solubility of the compound incubated for 60 mins under shaking condition by UHPLC-MS analysis; details: 1 h
[3] = Distribution coefficient, logD of compound in n-Octanol/PBS at pH 7.4 incubated for 30 mins under shaking condition by UV-Vis spectroscopic analysis; details: for logD: octanol/water, pH 7.4, 0.5 h, BLD = below limit of detection; for logD at 0.5 h: n-octanol/PBS, pH 7.4
[4] = Distribution coefficient, logD of compound in n-Octanol/PBS at pH 7.4 incubated for 30 mins under shaking condition by UHPLC-MS analysis
[5] = Kinetic solubility of the compound in universal buffer at pH 7.4 incubated for 60 mins under shaking condition by UHPLC-MS analysis; details: read-out: Kinetic_solubility
[6] = Dissociation constant, pKa of the compound
[7] = Kinetic solubility of the compound in PBS buffer at 50 mM pH 7.4 incubated for 60 mins under shaking condition by UHPLC-MS analysis; details: read-out: Kinetic_solubility

SMILES | log(Kinetic_solubility) ([1]; BLD = below limit of detection) | log(Kinetic_solubility) [2] | logD [3] | logD at 0.5 h [4] | solubility kinetic at 1 h [5] | pKa [6] | log(Kinetic_solubility) [1] | logD at 0.5 h [3] | solubility kinetic at 1 h [7] | log(Kinetic_solubility) ([2]; BLD = below limit of detection)
COc1ccc2c(c1)c(CC(=O)NCCCCCCC(=O)N[C@H](C(=O)N1C[C@H](O)C[C@H]1C(=O)N[C@@H](C)c1ccc(-c3scnc3C)cc1)C(C)(C)C)c(C)n2C(=O)c1ccc(Cl)cc1 | Bld | -7.34 | Bld | 5.6 | – | – | – | – | – | –
CCOC(=O)c1c(C)n(Cc2ccccc2)c2ccc(OCC(=O)NCCCC(=O)N[C@H](C(=O)N3C[C@H](O)C[C@H]3C(=O)N[C@@H](C)c3ccc(-c4scnc4C)cc3)C(C)(C)C)cc12 | Bld | -6.23 | Bld | 5.1 | – | – | – | – | – | –
COc1ccc2c(c1)c(CC(=O)NCCN1CCN(C(=O)CCC(=O)N[C@H](C(=O)N3C[C@H](O)C[C@H]3C(=O)N[C@@H](C)c3ccc(-c4scnc4C)cc3)C(C)(C)C)CC1)c(C)n2C(=O)c1ccc(Cl)cc1 | – | -5.7 | Bld | 4.8 | – | – | -5.22 | – | – | –
COc1ccc2c(c1)c(CC(=O)N1CCN(CC(=O)N[C@H](C(=O)N3C[C@H](O)C[C@H]3C(=O)N[C@@H](C)c3ccc(-c4scnc4C)cc3)C(C)(C)C)CC1)c(C)n2C(=O)c1ccc(Cl)cc1 | Bld | -6.62 | Bld | 5.3 | – | – | – | – | – | –
COc1ccc2c(c1)c(CC(=O)NCCCCC(=O)N[C@H](C(=O)N1C[C@H](O)C[C@H]1C(=O)N[C@@H](C)c1ccc(-c3scnc3C)cc1)C(C)(C)C)c(C)n2C(=O)c1ccc(Cl)cc1 | Bld | -6.1 | Bld | 5.47 | – | – | – | – | – | –
Cc1ncsc1-c1ccc([C@H](CC(=O)NCCCCCCCCCCC(=O)N[C@H]2C(C)(C)[C@H](Oc3ccc(C#N)c(Cl)c3)C2(C)C)NC(=O)[C@@H]2C[C@@H](O)CN2C(=O)[C@@H](NC(=O)C2(F)CC2)C(C)(C)C)cc1 | Bld | – | Bld | 4.9 | – | – | – | – | – | Bld

Further lines, results first:

log(Kinetic_solubility) ([1]; BLD = below limit of detection) | log(Kinetic_solubility) [2] | logD [3] | logD at 0.5 h [4] | solubility kinetic at 1 h [5] | pKa [6] | log(Kinetic_solubility) [1] | logD at 0.5 h [3] | solubility kinetic at 1 h [7] | log(Kinetic_solubility) ([2]; BLD = below limit of detection) | SMILES
Bld | -7.33 | Bld | 5.5 | 0.05 µM (≈ 0.0392 µg/mL) | 7.98 | – | – | – | – | Cc1sc2c(c1C)C(c1ccc(Cl)cc1)=N[C@@H](CC(=O)NCCCCCCCCNc1cccc3c1C(=O)N(C1CCC(=O)NC1=O)C3=O)c1nnc(C)n1-2 (some centres not stated)
– | -4.52 | – | 3.94 | – | – | -4.47 | 3.5 | – | – | Cc1ncsc1-c1ccc([C@H](C)NC(=O)[C@@H]2C[C@@H](O)CN2C(=O)[C@@H](NC(=O)COCCOCCNC(=O)COc2c(-c3csc(N4CCOCC4)n3)ccc(F)c2F)C(C)(C)C)cc1
– | -4.72 | Bld | 4.98 | 12 µM (≈ 10.6 µg/mL) | – | -4.72 | – | 17 µM (≈ 15 µg/mL) | – | Cc1ncsc1-c1ccc([C@H](C)NC(=O)[C@@H]2C[C@@H](O)CN2C(=O)[C@@H](NC(=O)CCCCNC(=O)COc2c(-c3csc(N4CCOCC4)n3)ccc(F)c2F)C(C)(C)C)cc1
– | -5.22 | Bld | 5.2 | – | – | -4.82 | – | – | – | Cc1ncsc1-c1ccc([C@H](C)NC(=O)[C@@H]2C[C@@H](O)CN2C(=O)[C@@H](NC(=O)CNCCOCCOc2c(-c3csc(N4CCOCC4)n3)ccc(F)c2F)C(C)(C)C)cc1
– | -5.15 | – | 3.82 | 71 µM (≈ 59.6 µg/mL) | 4.49 | -4.15 | 3.3 | – | – | Cc1sc2c(c1C)C(c1ccc(Cl)cc1)=N[C@@H](CC(=O)NCCCN1CCN(CCCNc3cccc4c3C(=O)N(C3CCC(=O)NC3=O)C4=O)CC1)c1nnc(C)n1-2 (some centres not stated)
– | -5.05 | – | 2.29 | – | – | -4.72 | 2.17 | – | – | CC(=O)c1c(C)c2cnc(Nc3ccc(N4CCN(CCOCCOCCOCCNC(=O)COc5cccc6c5C(=O)N(C5CCC(=O)NC5=O)C6=O)CC4)cn3)nc2n(C2CCCC2)c1=O (configuration not stated)
– | -4.28 | – | 2.82 | – | – | -4.28 | 2.82 | – | – | O=C(COc1c(-c2csc(N3CCOCC3)n2)ccc(F)c1F)NCCOCCOCCOCCOCCNc1cccc2c1C(=O)N(C1CCC(=O)NC1=O)C2=O (configuration not stated)
– | -5.14 | Bld | 4.99 | – | – | -5 | – | – | – | Cc1ncsc1-c1ccc([C@H](C)NC(=O)[C@@H]2C[C@@H](O)CN2C(=O)[C@@H](NC(=O)CCCCn2cc(COc3c(-c4csc(N5CCOCC5)n4)ccc(F)c3F)nn2)C(C)(C)C)cc1
